Activity calls are given as the source filed them. The rule behind the calls is not given here.
How the values were obtained:
[1] = tested on: HCT-116; assay: Cytotoxicity against human HCT-116 cells assessed as inhibition of cell viability incubated for 24 hrs by MTT assay; format: functional, cell-based; settings: HCT-116, 24 h
[2] = tested on: MCF7; assay: Cytotoxicity against human MCF7 cells assessed as inhibition of cell viability incubated for 24 hrs by MTT assay; format: functional, cell-based; settings: MCF7, 24 h
[3] = tested on: A549; assay: Cytotoxicity against human A549 cells assessed as inhibition of cell viability incubated for 24 hrs by MTT assay; format: functional, cell-based; settings: A549, 24 h
[4] = tested on: MCF7; assay: Antiproliferative activity against human MCF7 cells assessed as inhibition of colony growth at 2 uM incubated for 24 hrs by crystal violet staining based analysis; format: functional, cell-based
[5] = tested on: MCF7; assay: Induction of apoptosis in human MCF7 cells at 2 uM incubated for 24 hrs by Annexin V-FITC/PI staining based flow cytometric analysis; format: functional, cell-based
[6] = tested on: MCF7; assay: Antiproliferative activity against human MCF7 cells assessed as inhibition of colony growth incubated for 24 hrs by crystal violet staining based analysis; format: functional, cell-based; settings: dose 0.25-2 µM
[7] = tested on: MCF7; assay: Induction of cell cycle arrest in human MCF7 cells assessed as accumulation at G2/M phase at 0.25 to 2 uM incubated for 24 hrs by PI staining based flow cytometry; format: functional; settings: dose 0.25-2 µM
[8] = tested on: HCT-116; assay: Induction of cell cycle arrest in human HCT-116 cells assessed as accumulation at G2/M phase at 0.25 to 2 uM incubated for 24 hrs by PI staining based flow cytometry; format: functional; settings: dose 0.25-2 µM
[9] = tested on: HCT-116; assay: Induction of apoptosis in human HCT-116 cells at 2 uM incubated for 24 hrs by Annexin V-FITC/PI staining based flow cytometric analysis; format: functional, cell-based
[10] = tested on: HCT-116; assay: Antiproliferative activity against human HCT-116 cells assessed as inhibition of colony growth at 2 uM incubated for 24 hrs by crystal violet staining based analysis; format: functional, cell-based
[11] = tested on: HCT-116; assay: Induction of apoptosis in human HCT-116 cells assessed as upregulation of Bax expression at 0.25 to 2 uM incubated for 24 hrs by western blot analysis; format: functional, cell-based; settings: dose 0.25-2 µM
[12] = tested on: HCT-116; assay: Induction of apoptosis in human HCT-116 cells assessed as downregulation of Bcl-2 expression at 0.25 to 2 uM incubated for 24 hrs by western blot analysis; format: functional, cell-based; settings: dose 0.25-2 µM
[13] = tested on: HCT-116; assay: Induction of apoptosis in human HCT-116 cells assessed as upregulation of cleaved caspase-3 expression at 0.25 to 2 uM incubated for 24 hrs by western blot analysis; format: functional, cell-based; settings: dose 0.25-2 µM
[14] = tested on: HCT-116; assay: Antiproliferative activity against human HCT-116 cells assessed as inhibition of colony growth incubated for 24 hrs by crystal violet staining based analysis; format: functional, cell-based; settings: dose 0.25-2 µM

Row | SMILES | IC50 [1] | IC50 [2] | IC50 [3] | also measured
1 | CC[C@@]1(O)C(=O)OCc2c1cc1n(c2=O)[C@H](c2ccccc2F)c2cc3ccccc3nc2-1 | 500 nM | > 10000 nM | 10 nM | –
2 | CC[C@@]1(O)C(=O)OCc2c1cc1n(c2=O)[C@H](c2ccc3c(c2)OCO3)c2cc3ccccc3nc2-1 | 50 nM | > 10000 nM | 100 nM | –
3 | CCOc1ccc([C@@H]2c3cc4ccccc4nc3-c3cc4c(c(=O)n32)COC(=O)[C@]4(O)CC)cc1 | > 10000 nM | > 10000 nM | 100 nM | –
4 | C=Cc1ccc([C@H]2c3cc4ccccc4nc3-c3cc4c(c(=O)n32)COC(=O)[C@]4(O)CC)cc1 | 800 nM | 600 nM | > 10000 nM | –
5 | CCc1ccc(-c2ccc([C@@H]3c4cc5ccccc5nc4-c4cc5c(c(=O)n43)COC(=O)[C@]5(O)CC)cc2)cc1 | 200 nM | > 10000 nM | 800 nM | –
6 | CC[C@@]1(O)C(=O)OCc2c1cc1n(c2=O)[C@H](c2cccc(-c3ccccc3)c2)c2cc3ccccc3nc2-1 | > 10000 nM | > 10000 nM | 900 nM | –
7 | CC[C@@]1(O)C(=O)OCc2c1cc1n(c2=O)[C@@H](c2ccccc2C)c2cc3ccccc3nc2-1 | 200 nM | > 10000 nM | > 10000 nM | –
8 | CC[C@@]1(O)C(=O)OCc2c1cc1n(c2=O)[C@H](c2ccc3ccccc3c2)c2cc3ccccc3nc2-1 | > 10000 nM | > 10000 nM | 700 nM | –
9 | CC[C@@]1(O)C(=O)OCc2c1cc1n(c2=O)[C@H](c2cccc(C(F)(F)F)c2)c2cc3ccccc3nc2-1 | 1200 nM | 70 nM | > 10000 nM | –
10 | CC[C@@]1(O)C(=O)OCc2c1cc1n(c2=O)[C@H](c2ccc3c(c2)OCCO3)c2cc3ccccc3nc2-1 | 80 nM | > 10000 nM | 100 nM | –
11 | CC[C@@]1(O)C(=O)OCc2c1cc1n(c2=O)[C@H](c2cccc(CBr)c2)c2cc3ccccc3nc2-1 | 9300 nM | > 10000 nM | 1100 nM | –
12 | CC[C@@]1(O)C(=O)OCc2c1cc1n(c2=O)[C@H](c2c(OC)cccc2OC)c2cc3ccccc3nc2-1 | > 10000 nM | 400 nM | > 10000 nM | –
13 | CC[C@@]1(O)C(=O)OCc2c1cc1n(c2=O)[C@@H](c2cccc(-c3ccccc3)c2)c2cc3ccccc3nc2-1 | > 10000 nM | > 10000 nM | 8900 nM | –
14 | CC[C@@]1(O)C(=O)OCc2c1cc1n(c2=O)[C@@H](c2ccc(-c3cccc4ccccc34)cc2)c2cc3ccccc3nc2-1 | > 10000 nM | > 10000 nM | > 10000 nM | –
15 | CC[C@@]1(O)C(=O)OCc2c1cc1n(c2=O)[C@H](c2ccc(F)cc2)c2cc3ccccc3nc2-1 | > 10000 nM | 100 nM | 400 nM | –
16 | CC[C@@]1(O)C(=O)OCc2c1cc1n(c2=O)[C@@H](c2ccc(F)cc2)c2cc3ccccc3nc2-1 | > 10000 nM | 100 nM | > 10000 nM | –
17 | CC[C@@]1(O)C(=O)OCc2c1cc1n(c2=O)[C@H](CC=C(C)C)c2cc3ccccc3nc2-1 | 600 nM | 100 nM | 1200 nM | –
18 | CC[C@@]1(O)C(=O)OCc2c1cc1n(c2=O)[C@@H](c2ccccc2C(C)C)c2cc3ccccc3nc2-1 | 600 nM | > 10000 nM | 10 nM | –
19 | CCOc1ccc([C@H]2c3cc4ccccc4nc3-c3cc4c(c(=O)n32)COC(=O)[C@]4(O)CC)cc1 | > 10000 nM | > 10000 nM | 100 nM | –
20 | CC[C@@]1(O)C(=O)OCc2c1cc1n(c2=O)[C@@H](c2ccc(Cl)cc2)c2cc3ccccc3nc2-1 | > 10000 nM | > 10000 nM | > 10000 nM | –
21 | CC[C@@]1(O)C(=O)OCc2c1cc1n(c2=O)[C@H](c2cc(C)cc(C)c2)c2cc3ccccc3nc2-1 | > 10000 nM | 40 nM | > 10000 nM | Activity [4]: Active; Superior Activity Compared To Camptothecin Observed; Activity [5]: Active; Superior Activity Compared To Camptothecin Observed; Activity [6]: Dose-dependent-effect; Activity [7]: Active
22 | CC[C@@]1(O)C(=O)OCc2c1cc1n(c2=O)[C@@H](c2ccccc2Cl)c2cc3ccccc3nc2-1 | > 10000 nM | 100 nM | > 10000 nM | –
23 | CC[C@@]1(O)C(=O)OCc2c1cc1n(c2=O)[C@H](c2ccccc2C)c2cc3ccccc3nc2-1 | 200 nM | > 10000 nM | > 10000 nM | –

Row | SMILES | IC50 [1] | IC50 [2] | IC50 [3] | also measured
24 | CC[C@@]1(O)C(=O)OCc2c1cc1n(c2=O)[C@H](c2ccc(C(C)(C)C)cc2)c2cc3ccccc3nc2-1 | 200 nM | > 10000 nM | > 10000 nM | –
25 | C=Cc1ccc([C@@H]2c3cc4ccccc4nc3-c3cc4c(c(=O)n32)COC(=O)[C@]4(O)CC)cc1 | 900 nM | 100 nM | > 10000 nM | –
26 | CCOC(=O)/C=C/C[C@H]1c2cc3ccccc3nc2-c2cc3c(c(=O)n21)COC(=O)[C@]3(O)CC | 400 nM | > 10000 nM | 10 nM | –
27 | CC[C@@]1(O)C(=O)OCc2c1cc1n(c2=O)[C@H](c2ccc(-c3cccc4ccccc34)cc2)c2cc3ccccc3nc2-1 | 700 nM | 1100 nM | > 10000 nM | –
28 | CC[C@@]1(O)C(=O)OCc2c1cc1n(c2=O)[C@@H](c2cccc(C(F)(F)F)c2)c2cc3ccccc3nc2-1 | > 10000 nM | > 10000 nM | > 10000 nM | –
29 | CC[C@@]1(O)C(=O)OCc2c1cc1n(c2=O)[C@@H](c2cc(C)cc(C)c2)c2cc3ccccc3nc2-1 | > 10000 nM | 160 nM | > 10000 nM | –
30 | CC[C@@]1(O)C(=O)OCc2c1cc1n(c2=O)[C@H](c2cccc(F)c2C)c2cc3ccccc3nc2-1 | 10400 nM | > 10000 nM | 10 nM | –
31 | CC[C@@]1(O)C(=O)OCc2c1cc1n(c2=O)[C@H](c2c(C)cccc2C)c2cc3ccccc3nc2-1 | 300 nM | > 10000 nM | > 10000 nM | –
32 | CC[C@@]1(O)C(=O)OCc2c1cc1n(c2=O)[C@@H](c2c(OC)cccc2OC)c2cc3ccccc3nc2-1 | 50 nM | 400 nM | > 10000 nM | Activity [8]: Active; Activity [9]: Active; Superior Activity Compared To Camptothecin Observed; Activity [10]: Active; Superior Activity Compared To Camptothecin Observed; Activity [11]: Active; Activity [12]: Active; Activity [13]: Active; Activity [14]: Dose-dependent-effect
33 | CC[C@@]1(O)C(=O)OCc2c1cc1n(c2=O)[C@@H](c2cccc(F)c2C)c2cc3ccccc3nc2-1 | 900 nM | > 10000 nM | 10 nM | –
34 | CC[C@@]1(O)C(=O)OCc2c1cc1n(c2=O)[C@H](c2ccccc2Cl)c2cc3ccccc3nc2-1 | > 10000 nM | 600 nM | > 10000 nM | –
35 | CC[C@@]1(O)C(=O)OCc2c1cc1n(c2=O)[C@@H](c2ccccc2F)c2cc3ccccc3nc2-1 | > 10000 nM | > 10000 nM | 40 nM | –
36 | CC[C@@]1(O)C(=O)OCc2c1cc1n(c2=O)[C@@H](CC=C(C)C)c2cc3ccccc3nc2-1 | 500 nM | 60 nM | 20 nM | –
37 | CC[C@@]1(O)C(=O)OCc2c1cc1n(c2=O)[C@H](c2cccc(OC)c2)c2cc3ccccc3nc2-1 | > 10000 nM | > 10000 nM | 200 nM | –
38 | C=CC[C@@H]1c2cc3ccccc3nc2-c2cc3c(c(=O)n21)COC(=O)[C@]3(O)CC | 300 nM | 900 nM | > 10000 nM | –
39 | CC[C@@]1(O)C(=O)OCc2c1cc1n(c2=O)[C@H](c2ccc(Cl)cc2)c2cc3ccccc3nc2-1 | 600 nM | > 10000 nM | > 10000 nM | –
40 | CC[C@@]1(O)C(=O)OCc2c1cc1n(c2=O)[C@@H](c2ccc3c(c2)OCO3)c2cc3ccccc3nc2-1 | > 10000 nM | > 10000 nM | 500 nM | –
41 | CC[C@@]1(O)C(=O)OCc2c1cc1n(c2=O)Cc2cc3ccccc3nc2-1 [CAMPTOTHECIN] | 300 nM | 900 nM | 300 nM | –
42 | C=CC[C@H]1c2cc3ccccc3nc2-c2cc3c(c(=O)n21)COC(=O)[C@]3(O)CC | 400 nM | > 10000 nM | > 10000 nM | –
43 | CC[C@@]1(O)C(=O)OCc2c1cc1n(c2=O)[C@@H](c2c(C)cccc2C)c2cc3ccccc3nc2-1 | 1100 nM | > 10000 nM | > 10000 nM | –
44 | CCOC(=O)/C=C/C[C@@H]1c2cc3ccccc3nc2-c2cc3c(c(=O)n21)COC(=O)[C@]3(O)CC | 300 nM | 400 nM | 10 nM | –
45 | CC[C@@]1(O)C(=O)OCc2c1cc1n(c2=O)[C@H](c2ccccc2C(C)C)c2cc3ccccc3nc2-1 | 100 nM | 9200 nM | 10 nM | –
46 | CC[C@@]1(O)C(=O)OCc2c1cc1n(c2=O)[C@@H](c2cccc(OC)c2)c2cc3ccccc3nc2-1 | > 10000 nM | > 10000 nM | 1100 nM | –
